Here are results for 8 molecules from patent publication US7053107B2, “Indazole compounds and pharmaceutical compositions for inhibiting protein kinases, and methods for their use” (Agouron Pharmaceuticals, Inc., priority 2002, dated 2006).

Series [1] concerns the target T1, unphosphorylated VEGF-R2Δ50 (Homo sapiens, UniProt P35968, DEL940-989/E990V).
T1 construct: VEGF-R2Δ50 contains residues 806–939 and 990–1171; made in house; host or cells: baculovirus/insect cell system
Put plainly: VEGF-R2 coupled spectrophotometric assay, unphosphorylated construct (FLVK). It is filed as biochemical. The settings on record: for inhibition at 0.05 µM: % inhibition at 50 nM compound, read-out: FLVK Ki % inh @ 50 nM. From the text: This construct determines the ability of a test compound to inhibit tyrosine kinase activity. A construct (VEGF-R2Δ50) of the cytosolic domain of human vascular endothelial growth factor receptor 2 (VEGF-R2) lacking the 50 central residues of the 68 residues of the kinase insert domain was expressed in a baculovirus/insect cell system. Of the 1356 residues of full-length VEGF-R2, VEGF-R2Δ50 contains residues 806–939 and 990–1171, and also one point mutation (E99OV) within the kinase insert domain relative to wild-type VEGF-R2. Autophosphorylation of the purified construct was performed by incubation of the enzyme at a concentration of 4 μM in the presence of 3 mM ATP and 40 mM MgCl2 in 100 mM HEPES, pH 7.5, containing 5% glycerol and 5 mM DTT, at 4° C. for 2 h. […] See Parast et al., Biochemistry, 37,16788–16801 (1998).
(§1) The production of ADP from ATP that accompanies phosphoryl transfer was coupled to oxidation of NADH using phosphoenolpyruvate (PEP) and a system having pyruvate kinase (PK) and lactic dehydrogenase (LDH). The oxidation of NADH was monitored by following the decrease of absorbance at 340 nm (e340=6.22 cm^−1 mM^−1) using a Beckman DU 650 spectrophotometer. Assay conditions for phosphorylated VEGF-R2A50 (indicated as FLVK-P in the tables below) were the following: 1 mM PEP; 250 μM NADH; 50 units of LDH/mL; 20 units of PK/mL; 5 mM DTT; 5.1 mM poly(E4Y1); 1 mM ATP; and 25 mM MgCl2 in 200 mM HEPES, pH 7.5. Assay conditions for unphosphorylated VEGF-R2Δ50 (indicated as FLVK in the tables) were the following: 1 mM PEP; 250 μM NADH; 50 units of LDH/mL; 20 units of PK/mL; 5 mM DTT; […]; 3 mM ATP; and 60 mM MgCl2 and 2 mM MnCl2 in 200 mM HEPES, pH 7.5. Assays were initiated with 5 to 40 nM of enzyme. Ki values were determined by measuring enzyme activity in the presence of varying concentrations of test compounds. The data were analyzed using Enzyme Kinetic and Kaleidagraph software.

The target of series [2] is T2, FGF-R1 (Homo sapiens, UniProt P11362, C488A/C584S/L457V).
T2 construct: starting from the endogenous methionine residue 456 to glutamate 766; made in house; host or cells: baculovirus vector expression system
T2 sequence (P11362 456-766 L457V/C488A/C584S): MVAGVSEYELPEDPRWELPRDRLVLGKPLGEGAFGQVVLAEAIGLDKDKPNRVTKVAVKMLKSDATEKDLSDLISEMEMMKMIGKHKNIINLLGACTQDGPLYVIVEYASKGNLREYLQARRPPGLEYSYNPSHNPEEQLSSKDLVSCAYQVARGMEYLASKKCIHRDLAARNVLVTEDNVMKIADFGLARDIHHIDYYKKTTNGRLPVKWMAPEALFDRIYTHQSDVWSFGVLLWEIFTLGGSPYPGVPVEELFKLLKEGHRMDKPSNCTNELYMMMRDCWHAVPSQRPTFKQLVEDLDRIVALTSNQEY
The series can be described thus: Fibroblast Growth Factor (FGF-R) spectrophotometric assay. It is filed as biochemical. The settings on record: 1 μM compound; read-out: FGF-P % inhibit @1 μM.
Text: The intracellular kinase domain of human FGF-R1 was expressed using the baculovirus vector expression system starting from the endogenous methionine residue 456 to glutamate 766, according to the residue numbering system of Mohammadi et al., Mol. Cell. Biol., 16, 977–989 (1996). In addition, the construct also has the following 3 amino acid substitutions: L457V, C488A, and C584S.
as §1
The spectrophotometric assay was carried out as described above for VEGF-R2, except for the following changes in concentration: FGF-R=50 nM, ATP=2 mM, and poly(E4Y1)=15 mM.

The subject of series [3] is human umbilical vein endothelial cells (HUVEC). The series can be described thus: HUVEC Proliferation Assay (VEGF-stimulated). It is filed as cell-based. The method, then: This assay determines the ability of a test compound to inhibit the growth factor-stimulated proliferation of human umbilical vein endothelial cells (“HUVEC”). HUVEC cells (passage 3–4, Clonetics, Corp.) were thawed into EGM2 culture medium (Clonetics Corp) in T75 flasks. Fresh EGM2 medium was added to the flasks 24 hours later. Four or five days later, cells were exposed to another culture medium (F12K medium supplemented with 10% fetal bovine serum (FBS), 60 μg/mL endothelial cell growth supplement (ECGS), and 0.1 mg/mL heparin). Exponentially-growing HUVEC cells were used in experiments thereafter. Ten to twelve thousand HUVEC cells were plated in 96-well dishes in 100 μl of rich, culture medium (described above). The cells were allowed to attach for 24 hours in this medium. The medium was then removed by aspiration and 105 μl of starvation media (F12K+1% FBS) was added to each well. After 24 hours, 15 μl of test agent dissolved in 1% DMSO in starvation medium or this vehicle alone was added into each treatment well; the final DMSO concentration was 0.1%. One hour later, 30 μl of VEGF (30 ng/mL) in starvation media was added to all wells except those containing untreated controls; the final VEGF concentration was 6 ng/mL. Cellular proliferation was quantified 72 hours later by MTT dye reduction, at which time cells were exposed for 4 hours MTT (Promega Corp.). Dye reduction was stopped by addition of a stop solution (Promega Corp.) and absorbance at 595λ was determined on a 96-well spectrophotometer plate reader.
IC50 values were calculated by curve-fitting the response of A^595 to various concentrations of the test agent; typically, seven concentrations separated by 0.5 log were employed, with triplicate wells at each concentration. For screening compound library plates, one or two concentrations (one well per concentration) were employed, and the % inhibition was calculated by the following formula: % inhibition=(control−test)[…](control−starvation) where
control=A^595 when VEGF is present without test agent
test=A^595 when VEGF is present with test agent
starvation=A^595 when VEGF and test agent are both absent.

The test system of series [4] is HUVEC. Put plainly: bFGF Huvec. It is filed as cell-based. The settings on record: Homo sapiens.
Series [5] concerns the target T3, PDGFRβ (Homo sapiens, UniProt P09619).
T3 construct: expressed in transfected cells; host or cells: porcine aorta endothelial (PAE) cells
Put plainly: PAE-PDGFRβ Phosphorylation in PAE-PDGFRB Cells Assay. It is filed as cell-based. The note with it: PAE cells overexpressing human PDGFRβ; read-out: PAE PDGFR autophos IC50. The procedure: This assay determines the ability of a test compound to inhibit the autophosphorylation of PDGFRβ in porcine aorta endothelial (PAE)-PDGFRβ cells. PAE cells that overexpress human PDGFRβ were used in this assay. The cells were cultured in Ham's F12 media supplemented with 10% fetal bovine serum (FBS) and 400 ug/ml G418. Twenty thousands cells were seeded in each well of a 96-well plate in 50 μL of growth media and allowed to attach for 6 hours at 37° C. Cells were then exposed to the starvation media (Ham's F12 media supplemented with 0.1% FBS) for 16 hours. After the starvation period was over, 10 μL of test agent in 5% DMSO in starvation media were added to the test wells and 10 μL of the vehicle (5% DMSO in starvation media) were added into the control wells. The final DMSO concentration in each well was 0.5%. Plates were incubated at 37° C. for 1 hour and the cells were then stimulated with 1 μg/mL PDGF-BB (R & D System) in the presence of 2 mM Na3VO4 for 8 minutes. The cells were washed once with 1 mm Na3VO4 in HBSS and lysed by adding 50 μL per well of lysis buffer. One hundred μL of dilution buffer were then added to each well and the diluted cell lysate was transferred to a 96-well goat ant-rabbit coated plate (Pierce), which was pre-coated with Rabbit anti Human PDGFRβ antibody (Santa Cruz). The plates were incubated at room temperature for 2 hours and washed seven times with 1% Tween 20 in PBS. HRP-PY20 (Santa Cruz) was diluted and added to the plate for a 30-minute incubation. Plates were then washed again and TMB peroxidase substrate (Kirkegaard & Perry) was added for a 10-minute incubation. One hundred μL of 0.09 N H2SO4 was added into each well of the 96-well plate to stop the reaction. Phosphorylation status was assessed by spectrophotometer reading at 450 nm. IC50 values were calculated by curve fitting using a four-parameter analysis.

The target in series [6] is T4, LCK (Homo sapiens, UniProt P06239, C224D/P223M).
T4 construct: starting from amino acid residue 223 to the end of the protein at residue 509; made in house; host or cells: insect cells
T4 sequence (P06239 223-509 P223M/C224D): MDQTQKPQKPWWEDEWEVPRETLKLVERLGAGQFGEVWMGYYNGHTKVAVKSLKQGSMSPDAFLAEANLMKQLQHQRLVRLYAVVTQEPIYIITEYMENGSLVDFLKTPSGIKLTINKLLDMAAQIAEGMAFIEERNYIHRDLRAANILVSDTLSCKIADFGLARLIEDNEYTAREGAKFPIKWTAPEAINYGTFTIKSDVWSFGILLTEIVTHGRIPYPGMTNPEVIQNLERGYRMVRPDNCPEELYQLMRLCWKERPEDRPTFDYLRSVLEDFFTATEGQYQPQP
Put plainly: Lymphocyte-Specific Protein-Tyrosine Kinase (LCK) spectrophotometric assay. It is filed as biochemical. The settings on record: 1 μM compound; read-out: LckP* % inhibit @1 μM.

The nature of series [7]: Human Liver Microsome (HLM) Assay. It is filed as in vitro ADME. The method, then:
Compound metabolism in human liver microsomes was measured by LC-MS analytical assay procedures as follows. First, human liver microsomes (HLM) were thawed and diluted to 5 mg/mL with cold 100 mM potassium phosphate (KPO4) buffer. Appropriate amounts of KPO4 buffer, NADPH-regenerating solution (containing B-NADP, glucose-6-phosphate, glucose-6-phosphate dehydrogenase, and MgCl2), and HLM were preincubated in 13×100 mm glass tubes at 37 C. for 10 min. (3 tubes per test compound—triplicate). Test compound (5 µM final) was added to each tube to initiate reaction and was mixed by gentle vortexing, followed by incubation at 37° C. […] Samples were centrifuged at 4000 rpm for 20 min. to precipitate proteins and salt (Beckman Allegra 6KR, S/N ALK98DO6, #634). Supernatant was transferred to new 12×75 mm glass tubes and evaporated by Speed-Vac centrifugal vacuum evaporator. Samples were reconstituted in 200 μL 0.1% formic acid/acetonitrile (90/10) and vortexed vigorously to dissolve. The samples were then transferred to separate polypropylene microcentrifuge tubes and centrifuged at 14000×g for 10 min. (Fisher Micro 14, S/N M0017580). […]
The combined compound samples were injected into the LC-MS system, composed of a Hewlett-Packard HP 1100 diode array HPLC and a Micromass Quattro II triple quadruple mass spectrometer operating in positive electrospray SIR mode (programmed to scan specifically for the molecular ion of each test compound. Each test compound peak was integrated at each timepoint. […]
Background: Liver microsomes are a subcellular fraction often used to study metabolism.

For orientation: IC50 means the concentration needed to halve the response being measured. What is called Ki is the equilibrium dissociation constant of an inhibitor or competing ligand from its target.

T1 sequence (P35968 with tags, fused parts or gaps DEL940-989/E990V limits assumed): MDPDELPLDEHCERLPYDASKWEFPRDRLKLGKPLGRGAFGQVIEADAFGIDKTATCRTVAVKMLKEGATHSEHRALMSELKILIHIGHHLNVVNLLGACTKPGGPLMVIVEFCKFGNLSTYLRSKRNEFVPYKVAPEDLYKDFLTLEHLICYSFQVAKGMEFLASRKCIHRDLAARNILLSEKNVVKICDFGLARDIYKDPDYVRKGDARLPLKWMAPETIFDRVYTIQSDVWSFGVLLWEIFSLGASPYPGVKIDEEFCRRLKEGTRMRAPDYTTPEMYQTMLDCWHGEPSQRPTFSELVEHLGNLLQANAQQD
T3 sequence (P09619 33-1106): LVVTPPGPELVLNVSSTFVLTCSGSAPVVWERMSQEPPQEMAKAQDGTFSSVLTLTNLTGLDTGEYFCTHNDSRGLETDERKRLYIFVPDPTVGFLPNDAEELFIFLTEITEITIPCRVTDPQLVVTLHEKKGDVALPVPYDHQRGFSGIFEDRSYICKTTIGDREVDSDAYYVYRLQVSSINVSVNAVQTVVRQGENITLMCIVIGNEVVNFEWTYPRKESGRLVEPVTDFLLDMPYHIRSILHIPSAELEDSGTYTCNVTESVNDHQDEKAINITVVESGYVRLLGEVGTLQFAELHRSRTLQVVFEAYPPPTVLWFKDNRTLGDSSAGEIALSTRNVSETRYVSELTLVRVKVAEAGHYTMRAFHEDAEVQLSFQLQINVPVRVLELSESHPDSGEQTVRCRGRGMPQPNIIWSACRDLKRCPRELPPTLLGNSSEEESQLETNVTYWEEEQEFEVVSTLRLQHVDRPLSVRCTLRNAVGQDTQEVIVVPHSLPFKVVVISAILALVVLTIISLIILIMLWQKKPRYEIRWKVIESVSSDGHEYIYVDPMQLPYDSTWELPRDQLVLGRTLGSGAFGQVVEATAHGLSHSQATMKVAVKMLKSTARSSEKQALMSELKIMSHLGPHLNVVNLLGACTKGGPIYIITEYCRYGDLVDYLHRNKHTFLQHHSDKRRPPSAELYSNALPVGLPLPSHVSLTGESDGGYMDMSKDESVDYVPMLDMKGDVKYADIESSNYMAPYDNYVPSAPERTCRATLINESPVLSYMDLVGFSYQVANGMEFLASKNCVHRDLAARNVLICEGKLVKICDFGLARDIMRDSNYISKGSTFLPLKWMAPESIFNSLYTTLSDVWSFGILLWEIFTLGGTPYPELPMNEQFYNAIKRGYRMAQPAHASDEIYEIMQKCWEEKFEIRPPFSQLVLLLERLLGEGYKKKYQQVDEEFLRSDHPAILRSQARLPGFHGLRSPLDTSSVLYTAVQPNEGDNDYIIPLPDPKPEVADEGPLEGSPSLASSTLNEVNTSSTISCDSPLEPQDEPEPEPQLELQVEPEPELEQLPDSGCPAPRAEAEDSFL

For `Cc1ccnc(/C=C/c2n[nH]c3cc(Nc4ccccc4C(=O)NCc4cc(C)nn4C)ccc23)c1` [Example 41, N-(2,5-Dimethyl-2H-pyrazol-3-ylmethyl)-2-{3-[(E)-2-(4-methyl-pyridin-2-yl)-vinyl]-1H-indazol-6-ylamino}-benzamide], in series [1], the inhibition at 0.05 µM was found to be 45%. Besides, the inhibition at 1 µM in series [2] came out at 11%. For the same molecule, the IC50 worked out at 6.4 nM in series [3] and 3780 nM in series [4].
On to `C=C(C)CNC(=O)c1ccccc1Nc1ccc2c(/C=C/c3cc(C)cc(C)n3)n[nH]c2c1` [Example 15, 2-{3-[2-(4,6-Dimethyl-pyridin-2-yl)-vinyl]-1H-indazol-6-ylamino}-N-(2-methyl-allyl)-benzamide], for which the inhibition at 0.05 µM in series [1] was determined as 64%. The inhibition at 1 µM in series [2] worked out at 29%. Also, the IC50 in series [3] amounted to 1.5 nM; in series [5], 12.3 nM; in series [4] it was 1610 nM.
Regarding `O=C(NCc1ccccc1)c1ccccc1Nc1ccc2c(/C=C/c3ccccn3)n[nH]c2c1` [Example 3(g), N-Benzyl-2-[3-((E)-2-pyridin-2-yl-vinyl)-1H-indazol6-ylamino]-benzamide], the inhibition at 0.05 µM in series [1] is 95%. Besides, the inhibition at 1 µM in series [6] was 28%; in series [2], 72%. The IC50 in series [3] is 1.1 nM. The “% remaining (HLM)” value in series [7] (@0.5 h) is given as 72@0.5 h %.
For `C=CCONC(=O)c1ccccc1Nc1ccc2c(/C=C/c3ccccn3)n[nH]c2c1` [Example 3(b), N-Allyloxy-2-[3-((E)-2-pyridin-2-yl-vinyl)-1H-indazol-6-ylamino]-benzamide], the inhibition at 0.05 µM in series [1] was 98%. The inhibition at 1 µM was 27% in series [6] and 96% in series [2]. In series [3], this molecule came in with an IC50 of 5.7 nM. Besides, the “% remaining (HLM)” value in series [7] (@2 h) is listed as 84@2 h %.
For the molecule `Cc1cc(CNC(=O)c2ccccc2Nc2ccc3c(/C=C/c4ccccn4)n[nH]c3c2)n(C)n1` [Example 65, N-(2,5-Dimethyl-2H-pyrazol-3-ylmethyl)-2-[3-(2-pyridin-2-yl-vinyl)-1H-indazol-6-ylamino]-benzamide], the Ki in series [1] (cell prints nM instead of % inhibition) came out at 3.11 nM. The half-maximal inhibitory concentration (IC50) in series [3] amounted to 3.4 nM; in series [5], 5.8 nM. Besides, the “% remaining (HLM)” value in series [7] (@0.5 h) was 86@0.5 h %.
Take `CONC(=O)c1ccccc1Nc1ccc2c(/C=C/c3ccccn3)n[nH]c2c1` [Example 3(a), N-Methoxy-2-[3-((E)-2-pyridin-2-yl-vinyl)-1H-indazol-6-ylamino]-benzamide]: the inhibition at 0.05 µM in series [1] is 98%. The inhibition at 1 µM in series [6] came out at 30%; in series [2], 99%. Further, in series [3], 12.7 nM corresponded to half-maximal inhibition (IC50).
For `Cc1cc(C)nc(/C=C/c2n[nH]c3cc(Nc4ccccc4C(=O)NCC#CC4CC4)ccc23)c1` [Example 18, N-(3-Cycloprop-2-ynyl)-2-{3-[(E)-2-(4,6-dimethyl-pyridin-2-yl)-vinyl]-1H-indazol-6-ylamino}-benzamide], the inhibition at 0.05 µM in series [1] was determined as 94%. Further, the inhibition at 1 µM in series [2] worked out at 59%. For the same molecule, the half-inhibitory concentration (IC50) in series [4] stood at 1880 nM.
For the molecule `Cc1cc(CNC(=O)c2ccccc2Nc2ccc3c(/C=N/n4cccc4)n[nH]c3c2)n(C)n1` [Example 61, N-(2,5-Dimethyl-2H-pyrazol-3-ylmethyl)-2-[3-(pyrrol-1-yliminomethyl)-1H-indazol-6-ylamino]-benzamide], the inhibition at 0.05 µM in series [1] is 65%. Moreover, the inhibition at 1 µM in series [2] turned out to be 14%. The concentration for half-maximal inhibition (IC50) in series [3] turned out to be 6.5 nM; in series [4], 662 nM.
